Measurements from US6566081B1, “Methods of identifying a compound which modulates the non-transcriptional non-map-kinase induced effects of steroid hormones” (The Brigham and Women's Hospital, Inc., priority 1999, dated 2003).
Entries after “also recorded” stand apart in the source; their conditions may differ.

Experiments:
[1] = test system: PtdIns-3,4,5-P3; assay: Endogenous PtdIns-3,4,5-P3 levels in non-transfected human endothelial cells; assay type: cell-based; conditions: E2 10 nM, insulin 100 nM
[2] = test system: Akt/PKB; assay: Immunoblotting of Akt phosphorylation (Thr 308, Ser 473); assay type: cell-based, human
Experimental: (§1) After the different treatments, serum-starved endothelial cells were rinsed once with ice-cold PBS before addition of the lysis buffer (100 mM Tris-HCl, pH 6.8, 4% SDS, 20% glycerol, 1 mM sodium orthovanadate, 1 mM NaF, and 1 mM phenylmethylsulfonylfluoride) to the dishes on an ice tray. The cell lysates were scraped, boiled, and centrifuged for 2 min at 13000 rpm. Total cell lysates (40 μg of protein) and low range molecular weight markers (BIO-RAD, Hercules, Calif.) were separated by SDS-polyacrylamide gel electrophoresis (12% running, 4% stacking), electrophoretically transferred to polyvinylidene fluoride membranes (Immobilon P, 0.45 μm pore size) and incubated overnight at 4° C. with blocking solution (5% skim milk in TBS—0.1% Tween 20). Affinity-purified rabbit antibodies (0.4 μg of IgG/ml) vs. Akt, (Ser 473) phospho-Akt or (Thr 308) phospho-Akt (New England BioLabs, Beverly, Mass.), Erk1/2, (Tyr 204) phospho-Erk-1/-2 (Calbiochem, San Diego, Calif.) were incubated with the membranes overnight at 4° C. in TBS—0.1% Tween 20 containing 5% BSA. The blots were washed three times with TBS—0.1% Tween 20 and then treated with donkey anti-rabbit antibody (1:4000 dilution) coupled to horseradish peroxidase. Immunodetection was accomplished using the enhanced chemoluminescence kit (ECL Kit, Amersham Corp.).

[3] = test system: PI3K; assay: p-Tyr- and IRS-1-associated PI3K activity (immunoprecipitate); assay type: cell-based, human; conditions: p-Tyr and IRS-1 immunoprecipitate
[4] = test system: ERK 1 and 2; assay: Immunoblotting of ERK 1/2 phosphorylation; assay type: cell-based, human; conditions: E2 10 nM, from 2 minutes
Experimental: as §1

[5] = test system: PI3-kinase; assay: PI3-kinase assay on p85 immunoprecipitates of endothelial cell lysates; assay type: cell-based, human; conditions: for stimulation of PI3-kinase activity: E2/αE2 10 nM, insulin 100 nM; for effect on E2-induced PI3-kinase activation: E2 10 nM 20 min, ICI 10 μM, wortmannin 30 nM
Experimental: PI3kinase activity in endothelial cell lysates was assayed using the borate thin layer chromatography method, as described.^34 Following a 6 h incubation in serum- and estrogen-deficient medium 199, endothelial cells were treated according to the indicated conditions, washed, and harvested in ice-cold lysis buffer (137 mM NaCl, 20 mM Tris-HCl, pH 7.4, 1 mM CaCl2, 1 mM Mg Cl2, 0.1 mM Na3VO4, 1% NP-40). After pelleting the cell debris, the supernatant was incubated for 1 hour at 4° C. with 5 μL of a rabbit antiserum directed against the p85 regulatory subunit of the PI3-kinase (Upstate Biotechnology, Lake Placid, N.Y.), and immunoprecipitated with the addition of 50 μL of a 1:1 slurry of protein A-agarose for 1 hour at 4° C. Following centrifugation, the immunoprecipitates were washed three times with lysis buffer, three times with 0.1 M Tris-HCl, pH 7.4, 5 mM LiCl, 0.1 mM Na3VO4, followed by two washes with 10 mM Tris-HCl, pH 7.4, 150 mM NaCl, 5 mM EDTA, 0.1 mM Na3VO4.
The immunoprecipitates were then mixed with 50 μL Tris-HCl, pH 7.4, 150 mM NaCl, 5 mM EDTA, 20 μg of phosphatidylinositol (Sigma, Saint Louis, Mo.), 10 μL 100 mM MgCl2 and 5 μL of a 0.88 mM ATP, 20 mM MgCl2 solution, containing 30 μCi of [γ-^32P]ATP (3000 Ci/mmol; NEN Life Science Products, Boston, Mass.). […] The phospholipids were extracted with 160 μL of chloroform/methanol (1:1, v/v). 50 μL of the organic phase, containing the labeled PI3-kinase products were separated by borate thin layer chromatography on glass-backed Silica Gel 60 plates (EM Separations, Gibbstown, N.J.) pretreated with a solution containing 25 mM trans-1,2-diaminocyclohexane-N,N,N′N′-tetraacetic acid (CDTA, Sigma, Saint Louis, Mo.), 66% (v/v) ethanol and 0.06 N NaOH, dried for 1 hour and then baked at 100° C. for 15 minutes. The chromatography was developed with a solution containing 37.5% (v/v) methanol, 30% (v/v) chloroform, 22.5% (v/v) pyridine (Sigma, Saint Louis, Mo.), 1.33% (v/v) formic acid, […] boric acid and 8.5 mM butylated hydroxytoluene (Sigma, Saint Louis, Mo.), briefly dried and exposed to autoradiography.

[6] = target: T1, ER-α / PI3-kinase p85α (Homo sapiens, UniProt P03372); assay: ER-α immunoprecipitation: co-precipitated p85α and associated PI3-kinase activity; assay type: cell-based; conditions: ER-α immunoprecipitate
T1 construct: endogenous in cells; host or cells: human endothelial cells (HSVEC), anti-ERα immunoprecipitate
T1 sequence (P03372 1-595): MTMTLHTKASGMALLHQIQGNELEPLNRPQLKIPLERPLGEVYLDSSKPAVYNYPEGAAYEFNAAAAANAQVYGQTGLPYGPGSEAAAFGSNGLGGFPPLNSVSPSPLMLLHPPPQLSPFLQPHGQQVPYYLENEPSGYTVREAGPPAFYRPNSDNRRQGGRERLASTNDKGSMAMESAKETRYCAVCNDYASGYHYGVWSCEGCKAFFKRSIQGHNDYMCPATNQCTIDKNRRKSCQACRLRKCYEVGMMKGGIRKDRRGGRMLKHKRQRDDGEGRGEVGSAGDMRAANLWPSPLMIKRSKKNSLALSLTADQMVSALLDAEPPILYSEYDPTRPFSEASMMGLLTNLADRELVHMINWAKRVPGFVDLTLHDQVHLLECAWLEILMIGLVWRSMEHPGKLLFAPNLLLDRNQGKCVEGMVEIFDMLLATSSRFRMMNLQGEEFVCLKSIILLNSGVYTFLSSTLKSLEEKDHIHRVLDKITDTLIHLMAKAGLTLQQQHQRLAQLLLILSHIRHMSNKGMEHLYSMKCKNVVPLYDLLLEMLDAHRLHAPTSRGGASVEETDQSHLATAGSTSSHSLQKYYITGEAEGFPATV

[7] = E2/αE2 10 nM, insulin 100 nM, 20 min

17β-estradiol [E2]
endogenous PtdIns-3,4,5-P3 levels [1]: increased
Akt Ser 473 phosphorylation [2, 7]: hyperphosphorylated after 20 minutes
Akt threonine (Thr 308) phosphorylation [2, 7]: phosphorylated after 20 minutes; also recorded: increase in Akt phosphorylation
p-Tyr- or IRS-1-associated PI3K activity [3]: did not increase
phosphorylation of ERK 1 and 2 [4]: increased phosphorylation
stimulation of PI3-kinase activity ([5]; 20 min): strong activation
increase in PI3-kinase activity compared to baseline ([5]; E2 10 nM, 20 min): approximately 5 fold
PI3-kinase activity in the initial phase of stimulation ([5]; E2 10 nM, ≤10 min): little or no PI3-kinase activity

C[C@]12CC[C@@H]3c4ccc(O)cc4C[C@@H](CCCCCCCCC[S+]([O-])CCCC(F)(F)C(F)(F)F)[C@H]3[C@@H]1CC[C@@H]2O (some centres unmarked) [ICI 187,780]
effect on E2-induced Akt Ser 473 phosphorylation ([2]; ICI 10 μM, wortmannin 30 nM): not inhibited
effect on E2-induced Akt Thr 308 phosphorylation ([2]; ICI 10 μM, wortmannin 30 nM): blocked
effect on E2-induced PI3-kinase activation [5]: full inhibition; also recorded: completely inhibited
effect on E2-induced PI3-kinase activation ([5]; listed as ICI 182,780): completely blocked

insulin: known activator of the PI3-kinase/Akt pathway
endogenous PtdIns-3,4,5-P3 levels [1]: rapidly increased
p-Tyr- or IRS-1-associated PI3K activity [3]: increases
stimulation of PI3-kinase activity ([5]; 20 min): comparable increase
stimulation of PI3-kinase activity ([5]; 20 min, listed as Insulin): marked activation
stimulation of ER-α-associated PI3-kinase activity [6]: did not increase or augment
